# According to US20060160897A1, “Topical Use of Valproic Acid for the Prevention or Treatment of Skin Disorders” (priority 2003, published 2006):
# Experiments:
# HaCaT cells [1] = assay: MTT assay, growth of human immortalized keratinocytes; assay type: cell-based
# Procedure: MTT assay: This calorimetric assay detects the formation of formazan which is proportional to the number of cells present. Tissue culture medium containing drugs was removed and 200 μl of DME containing 2 mg/ml MTT ((3-4, 5-dimethyl thiazol-2yl) 2,5-diphenyltetrazolium bromide) was added to each well. 96-well plates were incubated at 37 ° C., and 10% CO2 for 30 minutes. Medium containing MTT was then removed and the cells were washed once with PBS. Following removal of the PBS, 200 μL DMSO was added to each well and plates were placed on a rotating platform shaker for 5 minutes. Results were obtained by reading the absorbance at a wavelength of 550 nm using a spectrophotometer. Results are expressed as percentages setting the control as 100%.
# FIG. 1 graphically depicts the results of growth assays performed on human immortalized keratinocytes (HaCaT cells), treated for three days with the indicated compounds. Drugs were added on the same day of plating (day 0). The MTT assay (to measure cell proliferation) was carried out on day 3. Various combinations of the drugs were used in the growth assays.
# Cells were plated in wells on day 0. […] The MTT assay was carried out on day 3. Various combinations of the drugs were also used in the growth assays. […] Thus, the combinatorial activity of these two drugs must be explained via synergistic activity of this treatment.
# Drugs were added on the same day of plating (day 0). The MTT assay (to measure cell proliferation) was carried out on the third day. […] Thus, this combinatorial activity of these two drugs must be explained via synergistic activity of this treatment.
# inflammatory cytokines [2] = assay: Semiquantitative RT-PCR of cytokine mRNA, PMA/Ion stimulated peripheral blood lymphocytes; assay type: cell-based, human; conditions: for cytokine expression (mRNA): PMA/Ion stimulation, FIG. 13 A and B
# Procedure: (§1) Monocyte and macrophage depleted peripheral blood mononuclear cells were obtained from consenting adults via separation using Ficoll-Hypaque. The peripheral blood mononuclear cells (PBMC) fraction was washed and seeded in 9 cm petri dishes. After an incubation of 2 hours at 37° C. to remove most of the monocytes, macrophages, and B-cells, the non-adherent cells were collected and cultured in 175 cm^2 flasks for 2 days. Cells were harvested and adjusted to 3 million cells per ml. Aliquots of 500 μl were transferred to each well of 24-well flat bottom plates. Peripheral blood lymphocytes (PBL's) were treated with various concentrations of HDAC inhibitors as indicated. After a 2 hours incubation time at 37° C. cells were stimulated with phorbol 12-myristate 13-acetate (PMA)/ionomycin (Ion) or activated via T cell receptor (TCR/CD3) complex with 10 μg/ml anti-CD3 mAb (OKT3) and 2.5 μg/ml anti-CD28 mAb. After 24 hours at 37° C. the supernatant was removed and frozen for cytokine assays. Cell pellets were lysed and total RNA was isolated using the RNeasy mini kit from Qiagen.
# (§2) One microgram of total RNA was transcribed to cDNA by standard methods using reverse transcriptase and an oligo-dT primer (Invitrogen). For semiquantitative PCR, 2 μl of cDNA was amplified by PCR using specific primers. Primers for PCR were synthesized by MWG and are as follows: […]
# IL-2 and TNF-α = IL-2 and TNF-α ELISA, supernatants of stimulated peripheral blood lymphocytes; assay type: cell-based, human; conditions: PBLs, FIG. 15; for concentration at which inhibition of IL-2 and TNF-α expression was maximal: CD3/CD28; for IL-2 secretion, dose-response / TNF-α secretion, dose-response: increasing concentrations two hours, CD3 and CD28 mAbs 24 hours
# Procedure: as §1
# To perform ELISAs, supernatants of treated and untreated PBL's were collected and IL-2 as well as TNF-α were measured using the Duo Set ELISA Development System (R&D Systems) as described by the manufacturer.
# [3] = test system: stage III/IV non-small cell lung cancer; conditions: monotherapy, phase II (Keer et al., 2002); cited from earlier work
# PPARδ = conditions: cited from earlier work
# inflammatory cytokines [4] = assay: Semiquantitative RT-PCR of cytokine mRNA, LPS stimulated keratinocytes; assay type: cell-based, human; conditions: HaCaT, 200 nM TSA or 5 mM VPA 4 hours, then LPS 100 ng/ml 24 hours, FIG. 12A
# Procedure: Human immortalized keratinocytes (HaCaT cells) were seeded at a density of 2.5 million cells per ml into 75 cm^2 flasks. […] After 24 hours at 37° C. cells were lysed and total RNA was isolated using the RNeasy mini kit from Qiagen.
# as §2
# F9 cells = conditions: cited from earlier work
# Basal Cell Carcinoma [5] = conditions: Tazarotene used alone; cited from earlier work
# HaCaT cells [6] = assay: Apoptosis assay, flow cytometry of Sub-G1 DNA containing cells; assay type: cell-based, human; conditions: drugs day 1, assay day 2, combinations VPA 1 mM + Tazarotene 1 or 2 μM, FIG. 5
# Procedure: Apoptosis assays: Apoptosis was measured by a Beckton Dickinson FACScalibur flow cytometer by analysing the percentage of Sub-G1 DNA containing cells. 10000 events were recorded for each sample. The amplification scale was linear for all parameters. Photomultiplier tension was set as to place the peak DNA content corresponding cells in G0/G1 at channel 300 in the FL2-H vs SCC—H graphs. Cells showing a less than peak DNA content (hypodiploid cells) and high SSC—H (granular high condensed cells) were regarded as apoptotic. The experiments were repeated three times in duplicate. Error bars represent 1 standard deviation.
# Cells were plated in 35 mm diameter wells on day 0. Drugs were added on day 1. The apoptosis assay was carried out on day 2. […] Thus, the combinatorial activity of these two drugs must be explained via synergistic activity of this treatment.
# Basal Cell Carcinoma [7] = assay: Topical treatment of BCC patients with Tazarotene and VPA; assay type: in vivo, human; conditions: 4 lesions pre-treated with Tazarotene alone for at least 16-20 weeks
# Procedure: 10 lesions were treated: 8 Superficial BCCs and 2 pigmented BCC. […] Lesions were evaluated clinically and photographed every two weeks.
# T-cell lymphomas = conditions: phase II trial (Piekarz et al., 2001); cited from earlier work
# [8] = test system: acute promyelocytic leukemia; conditions: one PML-RAR patient with multiple relapses after retinoic acid (Warrell et al., 1998); cited from earlier work
# [9] = vs untreated stimulated control
# [10] = PBLs preincubated 2 hours, PMA/Ion 24 hours, FIGS. 12B, 13
compound,measurement,setting,value
"O=c1[nH]cc(F)c(=O)[nH]1 [5-FU, 5-Fluorouracil]",cell growth (MTT assay),"HaCaT cells [1]; MTT on the third day, 5 μM or 10 μM 5-FU and 1 mM VPA, FIG. 3",inhibited growth
O=C(CCC1CCCC1)NO [G2M-701],cytokine expression (mRNA),inflammatory cytokines [2],can modulate cytokine expression
same,concentration at which inhibition of IL-2 and TNF-α expression was maximal,IL-2 and TNF-α,6 µM
same,"IL-2 secretion, dose-response",IL-2 and TNF-α,dose-dependent inhibition
same,"TNF-α secretion, dose-response",IL-2 and TNF-α,dose-dependent inhibition
O=C(CCC1CCCCC1)NO [G2M-702],cytokine expression (mRNA),inflammatory cytokines [2],can modulate cytokine expression
same,concentration at which inhibition of IL-2 and TNF-α expression was maximal,IL-2 and TNF-α,3 µM
same,"IL-2 secretion, dose-response",IL-2 and TNF-α,dose-dependent inhibition
same,"TNF-α secretion, dose-response",IL-2 and TNF-α,dose-dependent inhibition
O=C(/C=C/C1CCCCC1)NO [G2M-707],cytokine expression (mRNA),inflammatory cytokines [2],can modulate cytokine expression
same,concentration at which inhibition of IL-2 and TNF-α expression was maximal,IL-2 and TNF-α,1 µM
same,"IL-2 secretion, dose-response",IL-2 and TNF-α,dose-dependent inhibition
same,"TNF-α secretion, dose-response",IL-2 and TNF-α,dose-dependent inhibition
"CCCC(=O)OCOC(=O)C(C)(C)C [Pivanex, Pivaloyloxymethyl butyrate]",clinical activity,[3],demonstrating activity
"O=C(CCCCCCC(=O)Nc1ccccc1)NO [SAHA, suberoylanilide hydroxamic acid]",cytokine expression (mRNA),inflammatory cytokines [2],can modulate cytokine expression
"CC(/C=C/C(=O)NO)=C\[C@@H](C)C(=O)c1ccc(N(C)C)cc1 [TSA, trichostatin A]",PPARδ activation,PPARδ,activates
same,IFN-γ mRNA transcript,inflammatory cytokines [4],virtually unaffected
same,IL-6 mRNA level,inflammatory cytokines [4]; [9],significant decrease
same,TNF-α mRNA level,inflammatory cytokines [4]; [9],significant decrease
same,IL-4 mRNA transcripts,inflammatory cytokines [2]; [10],significantly reduced
same,IL-6 mRNA transcripts,inflammatory cytokines [2]; [10],only moderate effects
same,F9 cell differentiation,F9 cells,induces the same type of F9 cell differentiation as VPA
CCOC(=O)c1ccc(C#Cc2ccc3c(c2)C(C)(C)CCS3)nc1 [Tazarotene],share of BCC's in which regression is induced,Basal Cell Carcinoma [5],~50%
same,side effects (such as pain and itching),Basal Cell Carcinoma [5],several unwanted side effects
same,time to regression,Basal Cell Carcinoma [5],12-24 weeks
same,cell growth (MTT assay),"HaCaT cells [1]; treated three days, MTT on day 3, combinations VPA 1 mM + Tazarotene 1 or 2 μM, FIG. 1",inhibited cell growth
same,apoptosis (Sub-G1 DNA containing cells),HaCaT cells [6],induces apoptosis
same,tumor diameter under Tazarotene alone,Basal Cell Carcinoma [7],no reduction of tumor diameter
C/C=C1\NC(=O)[C@H]2CSSCC/C=C/[C@H](CC(=O)N[C@H](C(C)C)C(=O)N2)OC(=O)[C@H](C(C)C)NC1=O [depsipeptide],clinical outcome,T-cell lymphomas,used successfully
phenylbutyrate,clinical outcome of leukemia,[8],complete remission of the leukemia
